Source: patent US20070117770A1, “Human ribosomal DNA (rDNA) and ribosomal RNA (rRNA) nucleic acids and uses thereof” (Cylene Pharmaceuticals, Inc., priority 2005, published 2007)

How the values were obtained:
Experiment in all cases: Protein kinase inhibition assay
Type in all cases: biochemical
EphA8(h) = EphA8(h) (Homo sapiens, UniProt P29322); details: read-out: percent residual activity of EphA8(h)
Protocol: (§1) Certain compounds were tested for activity in protein kinase inhibition assays. All substrates were dissolved and diluted to working stocks in de-ionized water, apart from histone H1 (10× working stock in 20 mM MOPS pH 7.0), PDKtide (10× working stock in 50 mM Tris pH 7.0) ATF2 (which is typically stored at a 20× working stock in 50 mM Tris pH 7.5, 150 mM NaCl, 0.1 mM EGTA, 0.03% Brij-35, 50% glycerol, 1 mM benzamidine, 0.2 mM PMSF and 0.1% R-mercaptoethanol), KKLNRTLSFAEPG (SEQ ID NO:203) and RRRLSFAEPG (SEQ ID NO:204) (50 mM HEPES pH 7.4) and GGEEEEYFELVKKKK (SEQ ID NO:205) (20 mM MOPS pH 7.0). All kinases were pre-diluted to a 10× working concentration prior to addition into the assay. The composition of the dilution buffer for each kinase is detailed below.

DAPK1(h) = DAPK1(h) (Homo sapiens, UniProt P53355); details: read-out: percent residual activity of DAPK1(h)
Protocol: as §1

HIPK3(h) = HIPK3(h) (Homo sapiens, UniProt Q9H422); details: read-out: percent residual activity of HIPK3(h)
Protocol: as §1

PTK5(h) = PTK5(h) (Homo sapiens, UniProt P42685); details: read-out: percent residual activity of PTK5(h)
Protocol: as §1

FAK(h) = FAK(h) (Homo sapiens, UniProt Q05397); details: read-out: percent residual activity of FAK(h)
Protocol: as §1

STK33(h) = STK33(h) (Homo sapiens, UniProt Q9BYT3); details: read-out: percent residual activity of STK33(h)
Protocol: as §1

CDK9/cyclin T1(h) = CDK9/cyclin T1(h) (Homo sapiens, UniProt P50750); details: read-out: percent residual activity of CDK9/cyclin T1(h)
Protocol: as §1

Itk(h) = Itk(h) (Homo sapiens, UniProt Q08881); details: read-out: percent residual activity of Itk(h)
Protocol: as §1

cKit(D816H)(h) = cKit(D816H)(h) (Homo sapiens, UniProt P10721, D816H); details: read-out: percent residual activity of cKit(D816H)(h)
Protocol: as §1

eEF-2K(h) = eEF-2K(h) (Homo sapiens, UniProt O00418); details: read-out: percent residual activity of eEF-2K(h)
Protocol: as §1

CK1γ3(h) = CK1γ3(h) (Homo sapiens, UniProt Q9Y6M4); details: read-out: percent residual activity of CK1γ3(h)
Protocol: as §1

CaMKIIγ(h) = CaMKIIγ(h) (Homo sapiens, UniProt Q13555); details: read-out: percent residual activity of CaMKIIγ(h)
Protocol: as §1

MSSK1(h) = MSSK1(h) (Homo sapiens, UniProt Q9UPE1); details: read-out: percent residual activity of MSSK1(h)
Protocol: as §1

NEK11(h) = NEK11(h) (Homo sapiens, UniProt Q8NG66); details: read-out: percent residual activity of NEK11(h)
Protocol: as §1

WNK3(h) = WNK3(h) (Homo sapiens, UniProt Q9BYP7); details: read-out: percent residual activity of WNK3(h)
Protocol: as §1

CK1γ2(h) = CK1γ2(h) (Homo sapiens, UniProt P78368); details: read-out: percent residual activity of CK1γ2(h)
Protocol: as §1

EGFR(T790M, L858R)(h) = EGFR(T790M, L858R)(h) (Homo sapiens, UniProt P00533, L858R/T790M); details: read-out: percent residual activity of EGFR(T790M, L858R)(h)
Protocol: as §1

PAK3(h) = PAK3(h) (Homo sapiens, UniProt O75914); details: read-out: percent residual activity of PAK3(h)
Protocol: as §1

CK1γ1(h) = CK1γ1(h) (Homo sapiens, UniProt Q9HCP0); details: read-out: percent residual activity of CK1γ1(h)
Protocol: as §1

PKG1α(h) = PKG1α(h) (Homo sapiens, UniProt Q13976); details: read-out: percent residual activity of PKG1α(h)
Protocol: as §1

CLK3(h) = CLK3(h) (Homo sapiens, UniProt P49761); details: read-out: percent residual activity of CLK3(h)
Protocol: as §1

LKB1(h) = LKB1(h) (Homo sapiens, UniProt Q15831); details: read-out: percent residual activity of LKB1(h)
Protocol: as §1

DYRK2(h) = DYRK2(h) (Homo sapiens, UniProt Q92630); details: read-out: percent residual activity of DYRK2(h)
Protocol: as §1

CaMKIIδ(h) = CaMKIIδ(h) (Homo sapiens, UniProt Q13557); details: read-out: percent residual activity of CaMKIIδ(h)
Protocol: as §1

EphA1(h) = EphA1(h) (Homo sapiens, UniProt P21709); details: read-out: percent residual activity of EphA1(h)
Protocol: as §1

EphA7(h) = EphA7(h) (Homo sapiens, UniProt Q15375); details: read-out: percent residual activity of EphA7(h)
Protocol: as §1

SRPK2(h) = SRPK2(h) (Homo sapiens, UniProt P78362); details: read-out: percent residual activity of SRPK2(h)
Protocol: as §1

FAK(h), sequence (Q05397 whole entry): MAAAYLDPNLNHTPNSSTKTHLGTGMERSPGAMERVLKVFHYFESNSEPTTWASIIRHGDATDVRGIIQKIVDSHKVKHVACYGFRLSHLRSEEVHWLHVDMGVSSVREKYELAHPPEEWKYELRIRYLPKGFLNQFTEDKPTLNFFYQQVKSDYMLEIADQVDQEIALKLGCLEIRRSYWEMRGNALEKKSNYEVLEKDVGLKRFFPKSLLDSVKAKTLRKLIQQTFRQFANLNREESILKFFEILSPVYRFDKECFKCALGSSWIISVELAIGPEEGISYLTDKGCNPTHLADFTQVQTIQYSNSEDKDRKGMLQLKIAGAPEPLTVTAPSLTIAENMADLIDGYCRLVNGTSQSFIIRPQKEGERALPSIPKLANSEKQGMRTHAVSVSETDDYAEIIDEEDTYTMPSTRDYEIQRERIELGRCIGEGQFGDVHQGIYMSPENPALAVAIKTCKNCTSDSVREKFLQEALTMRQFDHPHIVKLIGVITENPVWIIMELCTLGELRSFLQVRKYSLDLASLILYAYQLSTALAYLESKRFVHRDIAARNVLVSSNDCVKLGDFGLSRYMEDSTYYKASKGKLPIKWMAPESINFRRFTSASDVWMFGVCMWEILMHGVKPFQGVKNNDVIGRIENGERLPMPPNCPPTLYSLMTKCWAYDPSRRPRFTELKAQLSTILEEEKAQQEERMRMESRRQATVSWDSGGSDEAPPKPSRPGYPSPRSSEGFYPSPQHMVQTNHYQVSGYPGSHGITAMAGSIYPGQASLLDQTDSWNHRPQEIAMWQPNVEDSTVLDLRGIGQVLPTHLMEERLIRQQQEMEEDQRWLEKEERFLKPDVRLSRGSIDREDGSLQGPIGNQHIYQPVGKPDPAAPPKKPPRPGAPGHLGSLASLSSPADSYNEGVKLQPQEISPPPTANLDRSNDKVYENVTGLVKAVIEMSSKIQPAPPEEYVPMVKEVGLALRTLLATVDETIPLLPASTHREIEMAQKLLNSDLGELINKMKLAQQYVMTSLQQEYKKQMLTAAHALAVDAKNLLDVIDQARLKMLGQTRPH
EphA1(h), sequence (P21709 26-976): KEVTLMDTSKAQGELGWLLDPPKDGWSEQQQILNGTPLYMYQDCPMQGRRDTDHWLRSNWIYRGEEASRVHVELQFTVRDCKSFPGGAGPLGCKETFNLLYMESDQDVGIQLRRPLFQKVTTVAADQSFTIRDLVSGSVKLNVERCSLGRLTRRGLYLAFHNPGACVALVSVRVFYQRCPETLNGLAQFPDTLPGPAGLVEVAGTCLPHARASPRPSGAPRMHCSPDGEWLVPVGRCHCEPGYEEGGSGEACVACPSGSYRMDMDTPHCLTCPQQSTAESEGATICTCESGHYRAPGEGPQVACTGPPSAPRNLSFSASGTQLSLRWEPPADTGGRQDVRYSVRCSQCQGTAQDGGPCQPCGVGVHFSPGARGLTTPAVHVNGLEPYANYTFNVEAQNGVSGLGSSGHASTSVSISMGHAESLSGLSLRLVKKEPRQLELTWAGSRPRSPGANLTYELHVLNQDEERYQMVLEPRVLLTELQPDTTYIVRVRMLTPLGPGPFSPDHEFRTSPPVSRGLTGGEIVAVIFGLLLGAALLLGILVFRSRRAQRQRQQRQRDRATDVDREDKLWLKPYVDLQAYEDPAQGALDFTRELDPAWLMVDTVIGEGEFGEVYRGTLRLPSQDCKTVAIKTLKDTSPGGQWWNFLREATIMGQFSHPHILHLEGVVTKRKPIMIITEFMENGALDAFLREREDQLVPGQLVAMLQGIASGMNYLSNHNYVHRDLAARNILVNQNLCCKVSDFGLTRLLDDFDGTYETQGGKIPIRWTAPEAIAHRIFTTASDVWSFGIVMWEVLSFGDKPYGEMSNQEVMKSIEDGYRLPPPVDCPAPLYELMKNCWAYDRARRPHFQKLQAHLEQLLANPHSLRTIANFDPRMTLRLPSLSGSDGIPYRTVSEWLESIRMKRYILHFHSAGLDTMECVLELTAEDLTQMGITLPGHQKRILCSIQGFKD
NEK11(h), sequence (Q8NG66 whole entry): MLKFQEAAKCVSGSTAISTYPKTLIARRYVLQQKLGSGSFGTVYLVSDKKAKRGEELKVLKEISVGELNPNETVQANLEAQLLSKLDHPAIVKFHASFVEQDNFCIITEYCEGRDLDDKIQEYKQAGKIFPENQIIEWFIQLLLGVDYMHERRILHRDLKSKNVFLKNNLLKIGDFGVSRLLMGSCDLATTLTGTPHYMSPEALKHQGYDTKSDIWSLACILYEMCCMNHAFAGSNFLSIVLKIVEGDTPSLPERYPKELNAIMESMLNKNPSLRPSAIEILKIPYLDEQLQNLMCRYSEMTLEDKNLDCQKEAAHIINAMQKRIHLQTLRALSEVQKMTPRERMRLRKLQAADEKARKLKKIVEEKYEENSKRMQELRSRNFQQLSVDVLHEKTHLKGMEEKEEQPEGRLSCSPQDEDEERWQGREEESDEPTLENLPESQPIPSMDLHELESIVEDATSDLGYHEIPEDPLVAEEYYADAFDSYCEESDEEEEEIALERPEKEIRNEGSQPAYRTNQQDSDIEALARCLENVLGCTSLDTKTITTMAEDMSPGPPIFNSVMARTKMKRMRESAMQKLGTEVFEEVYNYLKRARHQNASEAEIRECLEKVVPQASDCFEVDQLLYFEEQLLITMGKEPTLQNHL
PAK3(h), sequence (O75914 whole entry): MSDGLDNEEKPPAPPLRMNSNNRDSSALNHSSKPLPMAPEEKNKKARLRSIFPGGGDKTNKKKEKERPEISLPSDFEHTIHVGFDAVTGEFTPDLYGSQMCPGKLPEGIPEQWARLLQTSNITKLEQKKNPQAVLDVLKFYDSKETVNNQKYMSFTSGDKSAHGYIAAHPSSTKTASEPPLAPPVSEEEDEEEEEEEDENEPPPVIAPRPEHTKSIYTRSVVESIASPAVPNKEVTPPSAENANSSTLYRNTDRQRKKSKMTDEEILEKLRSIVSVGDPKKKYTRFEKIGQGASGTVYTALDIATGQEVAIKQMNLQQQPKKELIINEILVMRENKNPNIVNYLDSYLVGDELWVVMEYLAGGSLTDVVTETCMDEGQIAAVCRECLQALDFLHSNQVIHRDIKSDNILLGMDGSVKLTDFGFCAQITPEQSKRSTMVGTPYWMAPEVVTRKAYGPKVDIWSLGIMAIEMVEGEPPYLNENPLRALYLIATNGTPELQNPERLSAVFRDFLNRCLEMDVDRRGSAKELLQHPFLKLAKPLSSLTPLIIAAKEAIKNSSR
PKG1α(h), sequence (Q13976 whole entry): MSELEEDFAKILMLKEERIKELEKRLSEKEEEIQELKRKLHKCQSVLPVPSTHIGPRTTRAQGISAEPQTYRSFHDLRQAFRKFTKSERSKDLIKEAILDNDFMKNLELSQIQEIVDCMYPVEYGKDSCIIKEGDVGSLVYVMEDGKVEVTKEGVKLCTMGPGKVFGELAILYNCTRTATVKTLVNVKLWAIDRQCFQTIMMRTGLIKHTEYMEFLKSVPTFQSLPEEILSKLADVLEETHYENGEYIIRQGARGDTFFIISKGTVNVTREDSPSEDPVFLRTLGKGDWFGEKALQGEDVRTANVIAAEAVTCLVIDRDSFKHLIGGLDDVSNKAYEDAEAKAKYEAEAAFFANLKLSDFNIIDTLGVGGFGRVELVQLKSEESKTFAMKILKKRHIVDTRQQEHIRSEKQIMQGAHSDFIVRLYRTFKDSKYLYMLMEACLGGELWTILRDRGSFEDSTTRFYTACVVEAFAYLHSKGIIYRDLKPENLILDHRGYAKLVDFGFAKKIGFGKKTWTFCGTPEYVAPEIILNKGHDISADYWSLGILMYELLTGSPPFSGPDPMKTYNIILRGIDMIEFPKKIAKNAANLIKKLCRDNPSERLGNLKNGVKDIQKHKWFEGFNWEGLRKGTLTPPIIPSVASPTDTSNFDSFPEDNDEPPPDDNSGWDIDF
DYRK2(h), sequence (Q92630 whole entry): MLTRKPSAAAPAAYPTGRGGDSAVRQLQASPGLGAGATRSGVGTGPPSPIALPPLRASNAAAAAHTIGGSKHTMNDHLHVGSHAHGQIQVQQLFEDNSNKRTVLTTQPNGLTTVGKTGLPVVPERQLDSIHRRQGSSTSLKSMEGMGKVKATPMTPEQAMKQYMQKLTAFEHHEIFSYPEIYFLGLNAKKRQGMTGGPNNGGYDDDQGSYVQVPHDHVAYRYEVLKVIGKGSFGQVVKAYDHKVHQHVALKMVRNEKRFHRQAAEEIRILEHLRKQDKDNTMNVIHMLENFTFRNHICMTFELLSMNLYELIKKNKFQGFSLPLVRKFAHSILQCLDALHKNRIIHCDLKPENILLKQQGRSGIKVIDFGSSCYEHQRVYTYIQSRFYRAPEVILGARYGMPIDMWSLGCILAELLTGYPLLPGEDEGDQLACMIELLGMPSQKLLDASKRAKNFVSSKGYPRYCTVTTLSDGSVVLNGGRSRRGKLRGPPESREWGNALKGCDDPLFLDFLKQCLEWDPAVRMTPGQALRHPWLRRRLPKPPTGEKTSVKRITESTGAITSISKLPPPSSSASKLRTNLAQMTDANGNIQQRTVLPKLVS
CK1γ2(h), sequence (P78368 whole entry): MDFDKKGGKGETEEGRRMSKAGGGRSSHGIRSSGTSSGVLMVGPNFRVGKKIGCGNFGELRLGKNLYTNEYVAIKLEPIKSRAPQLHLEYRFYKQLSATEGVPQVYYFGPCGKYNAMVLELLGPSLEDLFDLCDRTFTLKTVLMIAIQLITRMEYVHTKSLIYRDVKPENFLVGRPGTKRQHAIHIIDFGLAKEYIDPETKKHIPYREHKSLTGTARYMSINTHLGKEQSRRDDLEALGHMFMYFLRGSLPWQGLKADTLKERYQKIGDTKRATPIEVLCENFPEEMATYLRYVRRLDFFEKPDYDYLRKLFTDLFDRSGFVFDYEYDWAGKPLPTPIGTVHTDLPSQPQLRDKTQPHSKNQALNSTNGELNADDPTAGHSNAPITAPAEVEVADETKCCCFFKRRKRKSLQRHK

Structure (SMILES) | remaining activity at 2.5 µM (EphA8(h)) [%] | remaining activity at 2.5 µM (DAPK1(h)) [%] | remaining activity at 2.5 µM (HIPK3(h)) [%] | remaining activity at 2.5 µM (PTK5(h)) [%] | remaining activity at 2.5 µM (FAK(h)) [%] | remaining activity at 2.5 µM (STK33(h)) [%] | remaining activity at 2.5 µM (CDK9/cyclin T1(h)) [%] | remaining activity at 2.5 µM (Itk(h)) [%] | remaining activity at 2.5 µM (cKit(D816H)(h)) [%] | remaining activity at 2.5 µM (eEF-2K(h)) [%] | remaining activity at 2.5 µM (CK1γ3(h)) [%] | remaining activity at 2.5 µM (CaMKIIγ(h)) [%] | remaining activity at 2.5 µM (MSSK1(h)) [%] | remaining activity at 2.5 µM (NEK11(h)) [%] | remaining activity at 2.5 µM (WNK3(h)) [%] | remaining activity at 2.5 µM (CK1γ2(h)) [%] | remaining activity at 2.5 µM (EGFR(T790M, L858R)(h)) [%] | remaining activity at 2.5 µM (PAK3(h)) [%] | remaining activity at 2.5 µM (CK1γ1(h)) [%] | remaining activity at 2.5 µM (PKG1α(h)) [%] | further results
CN1CCCC1CCNC(=O)c1cn2c3c(c(N4CCC(c5cnccn5)C4)c(F)cc3c1=O)Oc1cc3ccccc3cc1-2 (stereo not drawn) [Compound A-1] | 100 | 40 | 102 | 116 | 94 | 90 | 116 | 117 | 73 | 96 | 103 | 110 | 41 | 70 | 98 | 96 | 93 | 88 | 90 | 57 | remaining activity at 2.5 µM (CLK3(h)): 84%; remaining activity at 2.5 µM (LKB1(h)): 98%; remaining activity at 2.5 µM (DYRK2(h)): 70%; remaining activity at 2.5 µM (CaMKIIδ(h)): 88%; remaining activity at 2.5 µM (EphA1(h)): 69%; remaining activity at 2.5 µM (EphA7(h)): 109%; remaining activity at 2.5 µM (SRPK2(h)): 88%
CC(=O)N1CCN(c2ccc3c(=O)c(C(=O)NCCN4CCCC4)c4n(C)c5ccccc5n4c3n2)CC1 [Compound B-1] | 100 | 89 | 97 | 107 | 102 | 102 | 100 | 102 | 92 | 98 | 114 | 104 | 107 | 107 | 120 | 103 | 99 | 91 | 100 | 101 | remaining activity at 2.5 µM (CLK3(h)): 96%; remaining activity at 2.5 µM (LKB1(h)): 101%; remaining activity at 2.5 µM (DYRK2(h)): 75%; remaining activity at 2.5 µM (CaMKIIδ(h)): 96%; remaining activity at 2.5 µM (EphA1(h)): 96%; remaining activity at 2.5 µM (EphA7(h)): 100%; remaining activity at 2.5 µM (SRPK2(h)): 88%
